Several values for one entry are separate records, joined by “and”; a condition that tells them apart may be missing. Equal entries are not always repeated.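 Growth conditions: 96-well plates. Treatment: test compound, 48 hours, 5 concentrations. Analysis: linear interpolation between bracketing concentrations; unreached endpoints set to highest concentration. The concentration for 50% growth inhibition is given as GI50. TGI: total growth inhibition.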
How the values were obtained:
Assay in all cases: NCI tumour cell line growth inhibition, 48 h
DLD-1 colon = tested on: DLD-1 colon
HOP-18 NSCLC = tested on: HOP-18 NSCLC
HOP-62 NSCLC = tested on: HOP-62 NSCLC
IGROV1 ovarian = tested on: IGROV1 ovarian
KM12 colon = tested on: KM12 colon
M19-MEL melanoma = tested on: M19-MEL melanoma
MOLT-4 leukemia = tested on: MOLT-4 leukemia
NCI-H522 lung = tested on: NCI-H522 lung
SK-OV-3 ovarian = tested on: SK-OV-3 ovarian
SNB-78 CNS = tested on: SNB-78 CNS
UO-31 renal = tested on: UO-31 renal
SK-MEL-2 melanoma = tested on: SK-MEL-2 melanoma

Row | Compound | TGI (DLD-1 colon) [µM] | TGI (HOP-18 NSCLC) [µM] | TGI (HOP-62 NSCLC) [µM] | TGI (IGROV1 ovarian) [µM] | TGI (KM12 colon) | TGI (M19-MEL melanoma) [µM] | TGI (MOLT-4 leukemia) | TGI (NCI-H522 lung) | TGI (SK-OV-3 ovarian) | TGI (SNB-78 CNS) [µM] | TGI (UO-31 renal) [µM] | TGI (SK-MEL-2 melanoma) [µM] | GI50 (HOP-62 NSCLC) [µM] | GI50 (IGROV1 ovarian) [µM] | GI50 (KM12 colon) [µM] | GI50 (MOLT-4 leukemia) | GI50 (NCI-H522 lung) [µM] | GI50 (SK-OV-3 ovarian) [µM] | GI50 (SK-MEL-2 melanoma) [µM]
1 | C/C=C/C(=O)Oc1cccc2cccnc12 | 21 | > 100 | > 100 | > 94.7 | 42.4 µM | 38.6 | > 100 µM | 5.15 µM | > 100 µM | > 100 | > 84.7 |  |  |  |  |  |  |  | 
2 | Cc1cccc(NC(=O)C(=O)C(C2OC(=O)c3ccccc32)[N+](=O)[O-])c1C (stereo unspecified) | 23.1 | 22.3 | 31.1 | 27.7 | 26.9 µM | 3.91 | > 100 µM | 4.2 µM | 26.7 µM | > 100 | 21.4 | 17.2 |  |  |  |  |  |  | 
3 | O=C(/C=C/c1ccc(Cl)c(Cl)c1)c1ccccc1Cl | 10.4 | 25.3 | 34.2 | 24.2 | 20.9 µM | 17.2 | 98.4 µM | 24.1 µM | 57.8 µM | 32.3 | 27.8 |  |  |  |  |  |  |  | 
4 | C[P+]1(Cc2ccccc2)CCCC1 | > 100 | > 100 | > 100 | > 100 | > 100 µM | > 100 | > 100 µM | > 100 µM | > 100 µM | > 100 | > 100 | > 100 |  |  |  |  |  |  | 
5 | CC(=O)OC1CCC2OOC1O2 (stereo unspecified) |  |  | > 100 | > 100 | > 100 µM | > 100 | > 100 µM | > 100 µM | > 100 µM | > 100 | > 100 | > 100 |  |  |  |  |  |  | 
6 | CN(c1ccccc1)c1cc2ccccc2nn1 | > 100 | > 100 | > 100 | > 100 | > 100 µM | > 100 | > 100 µM | > 100 µM | > 100 µM | > 100 | > 100 | > 100 |  |  |  |  |  |  | 
7 | Nc1cccc2c1-c1c(cccc1[N+](=O)[O-])C2=O | > 100 | > 100 | > 100 | > 100 | > 100 µM | > 100 | > 100 µM | > 100 µM | > 100 µM | > 100 | 0.469 |  |  |  |  |  |  |  | 
8 | C/C=C(\N=C=S)C(=O)OC1C(COC(C)=O)OC([C@]2(O)CC(=O)C(=N)C(C(=O)O)=C2O)C(O)C1OC1CC(OC)C(O)([C@@H](C)OC(=O)[C@@H](C)CC)C(C)O1 (stereo partly specified) | 24.9 | 30.4 | 45.7 | 36 | 19.9 µM | 6.24 | 14 µM | 5.32 µM | 52 µM | 26.4 | 33.3 | 20 |  |  |  |  |  |  | 
9 | c1ccc(C2=NOC3C4CCC(C4)C23)cc1 (stereo unspecified) | > 100 | > 100 | > 100 | > 100 | > 100 µM | > 100 | > 100 µM | > 100 µM | > 100 µM | > 100 | > 100 | > 100 |  |  |  |  |  |  | 
10 | Cc1ccccc1NC(=O)/C(=N\NC(N)=S)C(C#N)c1ccccc1 (stereo unspecified) | > 100 | > 100 | > 100 | > 100 | > 100 µM | > 100 | > 100 µM | > 100 µM | > 100 µM | > 100 | > 100 | > 100 |  |  |  |  |  |  | 
11 | Cn1[nH]cc2ccc3nc4ccccc4c(=O)c3c21 | > 100 | > 100 | > 83.9 | > 100 | > 100 µM | 46.8 | > 95.1 µM | 64.9 µM | > 100 µM | > 83.9 | 52.3 | > 100 |  |  |  |  |  |  | 
12 | COc1cccc2c1C(=O)c1c(O)c3c(c(O)c1C2=O)C[C@@](O)(C(=O)CO)CC3OC1CC(N)C(OC2CCCCO2)C(C)O1 (stereo partly specified) | 17.8 | 1.06 |  |  | 0.583 µM and 3.09 µM |  | 0.276 µM and 0.576 µM | 0.282 µM and 1.72 µM | 2.09 µM and 12 µM | 26.5 | 5.46 | 4.1 | 0.0029 | 0.0158 | 1.19 | < 0.001 µM | 0.0409 | 0.0465 | 
13 | N#C/C(=C\c1cc(O)c(O)c(O)c1)C(N)=O | > 100 |  | > 100 | > 100 | > 100 µM | > 100 | > 100 µM | > 100 µM | > 100 µM | > 100 | > 100 | > 100 |  |  |  |  |  |  | 
14 | COC(=O)c1c(O)ccc(O)c1C(C(C)=O)C(C)=O | > 100 |  | > 100 | > 100 | > 100 µM | > 100 | > 100 µM | > 100 µM | > 100 µM | > 100 | > 100 | > 100 |  |  |  |  |  |  | 
15 | CC1OC(n2cc(C(F)(F)F)c(=O)[nH]c2=O)C=CC1=O (stereo unspecified) | 38.2 |  | 52.3 | 39.9 | 38.1 µM | 43.3 | 57.2 µM | 32.5 µM | 44.9 µM | 31.5 | 33 | 34.6 |  |  |  |  |  |  | 
16 | Cc1ccc2c(c1)-c1c3c(nn1C)-c1ccccc1SC3O2 (stereo unspecified) | > 100 | > 100 | > 100 | > 100 | > 100 µM | > 100 | > 100 µM | > 100 µM | > 100 µM | > 100 | 88.7 | > 100 |  |  |  |  |  |  | 
17 | CC(=O)OCC1OC(n2cccnc2=O)C(OC(C)=O)C1OC(C)=O (stereo unspecified) | > 100 | > 100 | > 100 |  | > 100 µM | > 100 | > 100 µM | > 100 µM | > 100 µM | > 100 | > 100 | > 100 |  |  |  |  |  |  | 
18 | C=C1C(=O)O[C@H](c2ccoc2)C[C@@H]1[C@@]1(C)CCCC2(C)C(=O)OCC21 (stereo partly specified) |  |  | > 100 | > 100 | > 100 µM | > 100 | > 100 µM | > 100 µM | > 100 µM | > 100 | > 100 | > 100 |  |  |  |  |  |  | 
19 | CNC(=O)ON(C(C)=O)C(=O)NC | 326 | 242 | 309 | 241 | 166 µM | 401 | > 91.5 µM and 92 µM | 73.5 µM | 276 µM | 384 | 114 | 98.5 |  |  |  | 35.7 µM and 19.1 µM |  |  | 38.3
20 | CCOC(=O)C1=C(OC(OCC)C([Se]c2ccccc2)C(C)C)CCC1 (stereo unspecified) | 33.8 | 41.3 | > 100 | 52.4 | > 100 µM | 34.9 | 45.4 µM | 20.2 µM | > 100 µM | 38.8 | 61 | 62 |  |  |  |  |  |  | 
21 | CCOC(=O)C1=C(C)NC(=O)NC1c1ccc(OC)cc1OC (stereo unspecified) | > 100 | > 100 | > 100 | > 100 | > 100 µM | > 100 | > 100 µM | > 100 µM | > 100 µM | > 100 | > 100 | > 100 |  |  |  |  |  |  | 
22 | N#Cc1c2ccccc2c(Cc2ccc3c(c2)OCCOCCOCCOCCOCCO3)c2ccccc12 | 22 | 21.8 | 23.6 | 19.5 | 17.9 µM |  | > 100 µM | 31.9 µM | 27.9 µM | 31.9 | 15.4 | 19.9 |  |  |  |  |  |  | 
23 | CC1(C)c2ccccc2N2C(c3ccccc3)=NOC21C (stereo unspecified) | > 100 | > 100 | > 100 | > 100 | > 100 µM | > 100 | > 100 µM | > 100 µM | > 100 µM | > 100 | > 100 | > 100 |  |  |  |  |  |  | 
24 | O=C(NC1CC1)c1c(O)[nH]c(=S)[nH]c1=O | > 100 | > 100 | > 100 | > 100 | > 100 µM | > 100 | > 100 µM | > 100 µM | > 100 µM | > 100 | > 100 | > 100 |  |  |  |  |  |  | 

From PubChem BioAssay (NCI)
